Results published in patent US12448388B2, “PRMT5 inhibitors and uses thereof” (Gilead Sciences, Inc., priority 2023, dated 2025).

Test system: HCT116 MTAP-deleted cell lines
Assay: Cell viability assay (CellTiter-Glo, 7 days), HCT116 MTAP-deleted
Type: cell-based
Conditions: Homo sapiens, HCT-116; cell viability, HCT116 MTAP-deleted; class symbols; read-out: CC50
In short: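 CC50 values come from 7-day CellTiter-Glo viability measurements on cells exposed to a dose range of PRMT5 inhibitors dispensed from DMSO stocks.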

Nc1nc2cc(F)c(C(=O)N3CCO[C@@H]4Cc5cc(OC(F)(F)F)ccc5[C@@H]43)cc2n2cncc12 [Ff-181, (4-amino-7-fluoroimidazo[1,5-a]quinoxalin-8-yl)((4aS,9aR)-7-(trifluoromethoxy)-2,3,9,9a-tetrahydroindeno[2,1-b][1,4]oxazin-4(4aH)-yl)methanone]
CC50: < 0.1 µM

Nc1nc2cnc(C(=O)N3CCO[C@@H]4Cc5cc(OC(F)(F)F)ccc5[C@@H]43)cc2n2cncc12 [Ff-182, (4-aminoimidazo[1,5-a]pyrido[3,4-e]pyrazin-8-yl)((4aS,9aR)-7-(trifluoromethoxy)-2,3,9,9a-tetrahydroindeno[2,1-b][1,4]oxazin-4(4aH)-yl)methanone]
CC50: < 0.1 µM

C[C@@H]1CN(C(=O)c2cc3c(cc2F)nc(N)c2cncn23)[C@H]2c3ccc(-c4cnn(C(F)F)c4)c(F)c3C[C@H]2O1 [Ff-199, (4-amino-7-fluoroimidazo[1,5-a]quinoxalin-8-yl)((2R,4aS,9aR)-7-(1-(difluoromethyl)-1H-pyrazol-4-yl)-8-fluoro-2-methyl-2,3,9,9a-tetrahydroindeno[2,1-b][1,4]oxazin-4(4aH)-yl)methanone]
CC50: < 0.1 µM

C[C@H]1CN(C(=O)c2cc3c(cc2F)nc(N)c2cncn23)[C@H]2c3ccc(-c4cnn(C(F)F)c4)c(F)c3C[C@H]2O1 [Ff-200, (4-amino-7-fluoroimidazo[1,5-a]quinoxalin-8-yl)((2S,4aS,9aR)-7-(1-(difluoromethyl)-1H-pyrazol-4-yl)-8-fluoro-2-methyl-2,3,9,9a-tetrahydroindeno[2,1-b][1,4]oxazin-4(4aH)-yl)methanone]
CC50: < 0.1 µM

Nc1nc2ccc(C(=O)N(Cc3ccc(C(F)(F)F)cc3F)C34CC(C3)C4)cc2n2cncc12 [Ff-202, 4-amino-N-(bicyclo[1.1.1]pentan-1-yl)-N-(2-fluoro-4-(trifluoromethyl)benzyl)imidazo[1,5-a]quinoxaline-8-carboxamide]
CC50: 0.1 to 1 µM

CN(C(=O)c1ccc2nc(N)c3cncn3c2c1)[C@@H]1COc2cc(-c3cnn(C(F)(F)F)c3)ccc21 [Ff-203, (S)-4-amino-N-methyl-N-(6-(1-(trifluoromethyl)-1H-pyrazol-4-yl)-2,3-dihydrobenzofuran-3-yl)imidazo[1,5-a]quinoxaline-8-carboxamide]
CC50: < 0.1 µM

Cn1cc(-c2ccc(CN(C(=O)c3cc4c(cc3F)nc(N)c3cncn34)C34CC(C3)C4)c(F)c2)cn1 [Ff-204, 4-amino-N-(bicyclo[1.1.1]pentan-1-yl)-7-fluoro-N-(2-fluoro-4-(1-methyl-1H-pyrazol-4-yl)benzyl)imidazo[1,5-a]quinoxaline-8-carboxamide]
CC50: < 0.1 µM

Nc1nc2cc(F)c(C(=O)N(Cc3ccc(-c4cnn(C(F)F)c4)cc3F)C34CC(C3)C4)cc2n2cncc12 [Ff-205, 4-amino-N-(bicyclo[1.1.1]pentan-1-yl)-N-(4-(1-(difluoromethyl)-1H-pyrazol-4-yl)-2-fluorobenzyl)-7-fluoroimidazo[1,5-a]quinoxaline-8-carboxamide]
CC50: < 0.1 µM

CN(C(=O)c1cc2c(cc1F)nc(N)c1cncn12)C1CCc2nc(Cl)ccc21 (stereo not drawn) [Ff-208, 4-amino-N-(2-chloro-6,7-dihydro-5H-cyclopenta[b]pyridin-5-yl)-7-fluoro-N-methylimidazo[1,5-a]quinoxaline-8-carboxamide]
CC50: 0.1 to 1 µM

CN(C(=O)c1cc2c(cc1F)nc(N)c1cncn12)C1CCc2nc(Br)ccc21 (stereo not drawn) [Ff-209, 4-amino-N-(2-bromo-6,7-dihydro-5H-cyclopenta[b]pyridin-5-yl)-7-fluoro-N-methylimidazo[1,5-a]quinoxaline-8-carboxamide]
CC50: 0.1 to 1 µM

Nc1nc2cc(F)c(C(=O)N(Cc3ccc(-c4cnn(C(F)(F)F)c4)cn3)C34CC(C3)C4)cc2n2cncc12 [Ff-211, 4-amino-N-(bicyclo[1.1.1]pentan-1-yl)-7-fluoro-N-((5-(1-(trifluoromethyl)-1H-pyrazol-4-yl)pyridin-2-yl)methyl)imidazo[1,5-a]quinoxaline-8-carboxamide]
CC50: < 0.1 µM

Nc1nc2cc(F)c(C(=O)N(Cc3ccc(-c4cnn(C(F)F)c4)cn3)C34CC(C3)C4)cc2n2cncc12 [Ff-212, 4-amino-N-(bicyclo[1.1.1]pentan-1-yl)-N-((5-(1-(difluoromethyl)-1H-pyrazol-4-yl)pyridin-2-yl)methyl)-7-fluoroimidazo[1,5-a]quinoxaline-8-carboxamide]
CC50: < 0.1 µM

CN(C(=O)c1cc2c(cc1F)nc(N)c1cncn12)[C@@H]1COc2cc(-c3cnn(C)c3)ccc21 [Ff-214, (S)-4-amino-7-fluoro-N-methyl-N-(6-(1-methyl-1H-pyrazol-4-yl)-2,3-dihydrobenzofuran-3-yl)imidazo[1,5-a]quinoxaline-8-carboxamide]
CC50: < 0.1 µM

CC(C)N(Cc1ccc(-c2ccnn2C(F)(F)F)cc1F)C(=O)c1cc2c(cc1F)nc(N)c1cncn12 [Ff-216]
CC50: < 0.1 µM

CC(C)N(Cc1ccc(-c2ccnn2C)cc1F)C(=O)c1cc2c(cc1F)nc(N)c1cncn12 [Ff-217, 4-amino-7-fluoro-N-(2-fluoro-4-(1-methyl-1H-pyrazol-5-yl)benzyl)-N-isopropylimidazo[1,5-a]quinoxaline-8-carboxamide]
CC50: < 0.1 µM

Nc1nc2cc(F)c(C(=O)N(Cc3ccc(-c4ccnn4C(F)(F)F)cc3F)C34CC(C3)C4)cc2n2cncc12 [Ff-218, 4-amino-N-(bicyclo[1.1.1]pentan-1-yl)-7-fluoro-N-(2-fluoro-4-(1-(trifluoromethyl)-1H-pyrazol-5-yl)benzyl)imidazo[1,5-a]quinoxaline-8-carboxamide]
CC50: < 0.1 µM

Cn1nccc1-c1ccc(CN(C(=O)c2cc3c(cc2F)nc(N)c2cncn23)C23CC(C2)C3)c(F)c1 [Ff-219, 4-amino-N-(bicyclo[1.1.1]pentan-1-yl)-7-fluoro-N-(2-fluoro-4-(1-methyl-1H-pyrazol-5-yl)benzyl)imidazo[1,5-a]quinoxaline-8-carboxamide]
CC50: < 0.1 µM

Cn1cc(N(Cc2ccc(-c3cnn(C(F)(F)F)c3)cc2F)C(=O)c2cc3c(cc2F)nc(N)c2cncn23)cn1 [Ff-220, 4-amino-7-fluoro-N-(2-fluoro-4-(1-(trifluoromethyl)-1H-pyrazol-4-yl)benzyl)-N-(1-methyl-1H-pyrazol-4-yl)imidazo[1,5-a]quinoxaline-8-carboxamide]
CC50: < 0.1 µM

Cn1cc(N(Cc2ccc(-c3cnn(C(F)F)c3)cc2F)C(=O)c2cc3c(cc2F)nc(N)c2cncn23)cn1 [Ff-221, 4-amino-N-(4-(1-(difluoromethyl)-1H-pyrazol-4-yl)-2-fluorobenzyl)-7-fluoro-N-(1-methyl-1H-pyrazol-4-yl)imidazo[1,5-a]quinoxaline-8-carboxamide]
CC50: < 0.1 µM

Nc1nc2cc(F)c(C(=O)N3CC(F)(F)CCC3c3ccc(C(F)(F)F)cn3)cc2n2cncc12 (stereo not drawn) [Ff-222, (4-amino-7-fluoroimidazo[1,5-a]quinoxalin-8-yl)(5,5-difluoro-2-(5-(trifluoromethyl)pyridin-2-yl)piperidin-1-yl)methanone]
CC50: < 0.1 µM

Nc1nc2cc(F)c(C(=O)N3CCC(F)(F)CC3c3ccc(C(F)(F)F)cn3)cc2n2cncc12 (stereo not drawn) [Ff-223, (4-amino-7-fluoroimidazo[1,5-a]quinoxalin-8-yl)(4,4-difluoro-2-(5-(trifluoromethyl)pyridin-2-yl)piperidin-1-yl)methanone]
CC50: 0.1 to 1 µM
